Measurements from patent publication US20240376090A1, “ISOXAZOLE DERIVATIVES AS MODULATORS OF THE 5-HT2A SEROTONIN RECEPTOR USEFUL FOR THE TREATMENT OF DISORDERED RELATED THERETO” (Arena Pharmaceuticals, Inc., priority 2020, published 2024).

How the values were obtained:
[1] = target: 5-HT2B receptor (Homo sapiens (Human), UniProt P41595); test: HTRF IP-One antagonist assay, 5-HT2B; assay type: cell-based; settings: HEK293 cells stably expressing recombinant human receptor; IP accumulation with 80 nM 5-HT
Sequence of 5-HT2B receptor (P41595 whole entry): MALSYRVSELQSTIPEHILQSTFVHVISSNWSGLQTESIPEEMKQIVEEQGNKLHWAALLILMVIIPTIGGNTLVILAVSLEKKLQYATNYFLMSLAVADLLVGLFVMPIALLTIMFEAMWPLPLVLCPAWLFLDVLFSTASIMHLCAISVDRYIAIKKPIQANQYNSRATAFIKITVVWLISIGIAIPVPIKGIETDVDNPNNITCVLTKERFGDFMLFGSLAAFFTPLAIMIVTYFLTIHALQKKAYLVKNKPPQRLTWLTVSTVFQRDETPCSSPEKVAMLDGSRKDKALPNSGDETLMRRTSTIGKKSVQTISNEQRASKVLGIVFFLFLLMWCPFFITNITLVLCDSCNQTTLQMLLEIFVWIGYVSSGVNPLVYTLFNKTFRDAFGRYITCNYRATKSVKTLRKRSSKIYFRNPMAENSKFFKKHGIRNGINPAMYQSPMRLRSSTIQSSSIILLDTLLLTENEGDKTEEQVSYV
Experimental: (§1) HEK293 cells stably expressing 5-HT2 receptors were generated using standard procedures. Cells were dilution cloned and clonal cell lines stably expressing the receptors at low levels were selected for pharmacology studies. In radioligand binding studies using a variety of radiolabeled probes, receptor densities in the 2A, 2B and 2C cell lines were estimated to be 50-70, 150-200, and 10-20 fmol/mg, respectively.
(§2) Inositol phosphate accumulation assays were performed using the HTRF IP-One assay system developed by Cisbio and generally followed the manufacturer's instructions. Briefly, HEK293 cells stably expressing recombinant human receptors were harvested and resuspended in phenol-red free OptiMEM (ThermoFisher), plated into 384-well assay plates (Perkin Elmer, ProxiPlate-Plus® Cat #6008280) at 10,000 cells/well in a volume of 10 μL/well, and incubated overnight at 37° C., 5% CO2. Test compounds were solubilized and serially diluted in DMSO, and then diluted into Assay Buffer (Tris HCl 20 mM, NaCl 150 mM, LiCl 40 mM, pargyline 25 μM, pH 8) containing 80 nM 5-HT. Test compounds were added to the cells (4 μL/well addition, maximal final assay concentration typically 10 μM) and plates, incubated for 2 hrs at 37° C./5% CO2 and then removed from the incubator and allowed to cool to room temperature for 30 minutes prior to addition of IP-One detection reagents. IP-One detection reagents (6 μL/well) were added and plates incubated for 1 hr at room temperature before reading on an HTRF compatible reader such as a Perkin Elmer EnVision® or BMG PheraStar®. Dose-response experiments utilized 10-point curves, typically starting at 10 μM, with 5-fold serial dilutions. Experiments were performed with triplicate data points and independent replicate experiments were performed to ensure data consistency.

[2] = target: 5-HT2C receptor (Homo sapiens (Human), UniProt P28335); test: HTRF IP-One antagonist assay, 5-HT2C; assay type: cell-based; settings: HEK293 cells stably expressing recombinant human receptor; IP accumulation with 80 nM 5-HT
Sequence of 5-HT2C receptor (P28335 33-458): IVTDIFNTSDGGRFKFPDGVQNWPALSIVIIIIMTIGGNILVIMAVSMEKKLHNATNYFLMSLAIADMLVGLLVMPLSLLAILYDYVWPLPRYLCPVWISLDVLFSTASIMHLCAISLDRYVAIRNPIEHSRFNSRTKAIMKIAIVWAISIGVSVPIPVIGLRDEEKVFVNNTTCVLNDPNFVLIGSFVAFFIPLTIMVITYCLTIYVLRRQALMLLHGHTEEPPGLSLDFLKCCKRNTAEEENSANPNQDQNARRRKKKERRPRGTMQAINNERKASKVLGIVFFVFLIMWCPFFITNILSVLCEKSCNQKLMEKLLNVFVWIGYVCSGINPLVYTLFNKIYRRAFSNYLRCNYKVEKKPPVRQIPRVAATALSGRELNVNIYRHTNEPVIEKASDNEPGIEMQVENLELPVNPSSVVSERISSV
Experimental: as §1, §2

[3] = target: T1, 5-HT2A receptor (Homo sapiens (Human), UniProt P28223); test: Radioligand binding assay ([3H]5-HT competition), 5-HT2A; settings: [3H]5-HT radioligand, membranes of HEK293 cells expressing recombinant 5-HT2A; Ki from IC50 by Cheng-Prusoff; read-out: 5-HT2A serotonin binding Ki value
T1 sequence (P28223 whole entry): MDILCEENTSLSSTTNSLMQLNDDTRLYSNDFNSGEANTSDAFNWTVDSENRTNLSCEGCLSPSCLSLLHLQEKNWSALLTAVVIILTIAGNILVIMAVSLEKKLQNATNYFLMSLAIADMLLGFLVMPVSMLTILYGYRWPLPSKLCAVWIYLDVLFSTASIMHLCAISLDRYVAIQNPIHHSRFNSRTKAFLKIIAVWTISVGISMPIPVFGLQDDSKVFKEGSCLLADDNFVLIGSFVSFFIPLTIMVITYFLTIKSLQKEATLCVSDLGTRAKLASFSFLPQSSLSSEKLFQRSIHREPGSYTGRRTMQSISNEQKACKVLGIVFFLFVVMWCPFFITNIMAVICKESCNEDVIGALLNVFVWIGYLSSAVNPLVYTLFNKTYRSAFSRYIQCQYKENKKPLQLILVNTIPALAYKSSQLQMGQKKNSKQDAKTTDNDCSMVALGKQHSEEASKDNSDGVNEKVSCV

[4] = target: T1, 5-HT2A receptor; test: HTRF IP-One antagonist assay, 5-HT2A; assay type: cell-based; settings: HEK293 cells stably expressing recombinant human receptor; IP accumulation with 80 nM 5-HT
Experimental: as §1, §2

Cc1noc(C)c1-c1cc(NC(=O)C2(F)CC2)ccc1OCCN1CCC1 [Compound 117, N-[4-[2-(azetidin-1-yl)ethoxy]-3-(3,5-dimethylisoxazol-4-yl)phenyl]-1-fluoro-cyclopropanecarboxamide]
IC50 [1]: ≥ 100000 nM
IC50 [2]: ≥ 100000 nM
Ki [3]: 10.3 nM
IC50 [4]: 20.6 nM

Cc1noc(C)c1-c1cc(NC(=O)c2ccccc2)ccc1OC1CNC1 [Compound 241, N-(4-(azetidin-3-yloxy)-3-(3,5-dimethylisoxazol-4-yl)phenyl)benzamide]
IC50 [1]: ≥ 100000 nM
IC50 [2]: ≥ 100000 nM
Ki [3]: 6.94 nM
IC50 [4]: 35 nM

Cc1noc(C)c1-c1cc(NC(=O)Cc2ccccc2)ccc1OC[C@H]1CCCCN1 [Compound 221, (R)—N-(3-(3,5-dimethylisoxazol-4-yl)-4-(piperidin-2-ylmethoxy)phenyl)-2-phenylacetamide]
IC50 [1]: ≥ 100000 nM
IC50 [2]: ≥ 100000 nM
Ki [3]: 4.22 nM
IC50 [4]: 17.8 nM

Cc1noc(C)c1-c1cc(NC(=O)c2c(F)cnn2C)ccc1OC1CNC1 [Compound 240, N-(4-(azetidin-3-yloxy)-3-(3,5-dimethylisoxazol-4-yl)phenyl)-4-fluoro-1-methyl-1H-pyrazole-5-carboxamide]
IC50 [1]: ≥ 100000 nM
IC50 [2]: ≥ 100000 nM
Ki [3]: 1.36 nM
IC50 [4]: 17.8 nM

Cc1noc(C)c1-c1cc(NC(=O)c2cccc(F)c2)ccc1OC1CNC1 [Compound 243, N-(4-(azetidin-3-yloxy)-3-(3,5-dimethylisoxazol-4-yl)phenyl)-3-fluorobenzamide]
IC50 [1]: ≥ 100000 nM
IC50 [2]: 6210 nM
Ki [3]: 1.07 nM
IC50 [4]: 16.5 nM

COc1cccc(C(=O)Nc2ccc(OC[C@H]3CCCCN3)c(-c3c(C)noc3C)c2)c1 [Compound 220, (R)—N-(3-(3,5-dimethylisoxazol-4-yl)-4-(piperidin-2-ylmethoxy)phenyl)-3-methoxybenzamide]
IC50 [1]: ≥ 100000 nM
IC50 [2]: ≥ 100000 nM
Ki [3]: 0.907 nM
IC50 [4]: 2.58 nM

Cc1noc(C)c1-c1cc(NC(=O)Cc2ccns2)ccc1OC[C@H]1CCCCN1 [Compound 233, (R)—N-(3-(3,5-dimethylisoxazol-4-yl)-4-(piperidin-2-ylmethoxy)phenyl)-2-(isothiazol-5-yl)acetamide]
IC50 [1]: ≥ 100000 nM
IC50 [2]: ≥ 100000 nM
Ki [3]: 1.64 nM
IC50 [4]: 9.5 nM

Cc1noc(C)c1-c1cc(NC(=O)Cc2cncc(F)c2)ccc1OC[C@H]1CCCCN1 [Compound 226, (R)—N-(3-(3,5-dimethylisoxazol-4-yl)-4-(piperidin-2-ylmethoxy)phenyl)-2-(5-fluoropyridin-3-yl)acetamide]
IC50 [1]: ≥ 100000 nM
IC50 [2]: ≥ 100000 nM
Ki [3]: 10.4 nM
IC50 [4]: 10.9 nM

COc1cccc(C(=O)Nc2ccc(OC3CNC3)c(-c3c(C)noc3C)c2)c1 [Compound 244, N-(4-(azetidin-3-yloxy)-3-(3,5-dimethylisoxazol-4-yl)phenyl)-3-methoxybenzamide]
IC50 [1]: ≥ 100000 nM
IC50 [2]: ≥ 100000 nM
Ki [3]: 0.85 nM
IC50 [4]: 19 nM

Cc1nonc1C(=O)Nc1ccc(OC[C@H]2CCCCN2)c(-c2c(C)noc2C)c1 [Compound 232, (R)—N-(3-(3,5-dimethylisoxazol-4-yl)-4-(piperidin-2-ylmethoxy)phenyl)-4-methyl-1,2,5-oxadiazole-3-carboxamide]
IC50 [1]: ≥ 100000 nM
IC50 [2]: ≥ 100000 nM
Ki [3]: 3.86 nM
IC50 [4]: 24.8 nM

Cc1noc(C)c1-c1cc(NC(=O)Cc2cnsc2)ccc1OC[C@H]1CCCCN1 [Compound 234, (R)—N-(3-(3,5-dimethylisoxazol-4-yl)-4-(piperidin-2-ylmethoxy)phenyl)-2-(isothiazol-4-yl)acetamide]
IC50 [1]: ≥ 100000 nM
IC50 [2]: ≥ 100000 nM
Ki [3]: 0.657 nM
IC50 [4]: 2.39 nM

Cc1noc(C)c1-c1cc(NC(=O)C2CC2)ccc1OCCN1CCC(O)CC1 [Compound 146, N-(3-(3,5-dimethylisoxazol-4-yl)-4-(2-(4-hydroxypiperidin-1-yl)ethoxy)phenyl)cyclopropanecarboxamide]
IC50 [1]: ≥ 100000 nM
IC50 [2]: ≥ 100000 nM
Ki [3]: 5.08 nM
IC50 [4]: 15.7 nM

CO[C@H]1CCN(CCOc2ccc(NC(=O)C3CC3)cc2-c2c(C)noc2C)C1 [Compound 144, (S)—N-(3-(3,5-dimethylisoxazol-4-yl)-4-(2-(3-methoxypyrrolidin-1-yl)ethoxy)phenyl)cyclopropanecarboxamide]
IC50 [1]: ≥ 100000 nM
IC50 [2]: ≥ 100000 nM
Ki [3]: 14.9 nM
IC50 [4]: 85.5 nM

Cc1noc(C)c1-c1cc(NC(=O)C2CC2)ccc1OC[C@H]1CCCCN1 [Compound 169, N-[3-(3,5-dimethylisoxazol-4-yl)-4-[[(2R)-2-piperidyl]methoxy]phenyl]cyclopropanecarboxamide]
IC50 [1]: ≥ 100000 nM
IC50 [2]: ≥ 100000 nM
Ki [3]: 2.16 nM
IC50 [4]: 13 nM

Cc1noc(C)c1-c1cc(NC(=O)[C@H]2C[C@H]2F)ccc1OC[C@H]1CCCCN1 [Compound 191, (1R,2R)—N-(3-(3,5-dimethylisoxazol-4-yl)-4-(((R)-piperidin-2-yl)methoxy)phenyl)-2-fluorocyclopropane-1-carboxamide]
IC50 [1]: ≥ 100000 nM
IC50 [2]: ≥ 100000 nM
Ki [3]: 7.61 nM
IC50 [4]: 60.1 nM

Cc1noc(C)c1-c1cc(NC(=O)c2ccc(F)cc2)ccc1OC1CNC1 [Compound 242, N-(4-(azetidin-3-yloxy)-3-(3,5-dimethylisoxazol-4-yl)phenyl)-4-fluorobenzamide]
IC50 [1]: 3390 nM
IC50 [2]: 4920 nM
Ki [3]: 2.1 nM
IC50 [4]: 44.2 nM

Cc1noc(C)c1-c1cc(NC(=O)C2(F)CC2)ccc1O[C@@H]1CCNC1 [Compound 238, (R)—N-(3-(3,5-dimethylisoxazol-4-yl)-4-(pyrrolidin-3-yloxy)phenyl)-1-fluorocyclopropane-1-carboxamide]
IC50 [1]: ≥ 100000 nM
IC50 [2]: ≥ 100000 nM
Ki [3]: 3.61 nM
IC50 [4]: 45.2 nM

Cc1noc(C)c1-c1cc(NC(=O)c2cccn2C)ccc1OC[C@H]1CCCCN1 [Compound 189, (R)—N-(3-(3,5-dimethylisoxazol-4-yl)-4-(piperidin-2-ylmethoxy)phenyl)-1-methyl-1H-pyrrole-2-carboxamide]
IC50 [1]: ≥ 100000 nM
IC50 [2]: ≥ 100000 nM
Ki [3]: 3.92 nM
IC50 [4]: 24.9 nM

COc1cccc(CC(=O)Nc2ccc(OC[C@H]3CCCCN3)c(-c3c(C)noc3C)c2)c1 [Compound 222, (R)—N-(3-(3,5-dimethylisoxazol-4-yl)-4-(piperidin-2-ylmethoxy)phenyl)-2-(3-methoxyphenyl)acetamide]
IC50 [1]: ≥ 100000 nM
IC50 [2]: ≥ 100000 nM
Ki [3]: 4.68 nM
IC50 [4]: 53.4 nM

Cc1noc(C)c1-c1cc(NC(=O)C2(F)CC2)ccc1OC1CNC1 [Compound 245, N-(4-(azetidin-3-yloxy)-3-(3,5-dimethylisoxazol-4-yl)phenyl)-1-fluorocyclopropane-1-carboxamide]
IC50 [1]: ≥ 100000 nM
IC50 [2]: ≥ 100000 nM
Ki [3]: 2.05 nM
IC50 [4]: 37.9 nM

Cc1noc(C)c1-c1cc(NC(=O)c2ccc(F)cc2)ccc1OC[C@H]1CCCCN1 [Compound 219, (R)—N-(3-(3,5-dimethylisoxazol-4-yl)-4-(piperidin-2-ylmethoxy)phenyl)-4-fluorobenzamide]
IC50 [1]: ≥ 100000 nM
IC50 [2]: ≥ 100000 nM
Ki [3]: 2.92 nM
IC50 [4]: 10.4 nM

Cc1nscc1C(=O)Nc1ccc(OC[C@H]2CCCCN2)c(-c2c(C)noc2C)c1 [Compound 187, (R)—N-(3-(3,5-dimethylisoxazol-4-yl)-4-(piperidin-2-ylmethoxy)phenyl)-3-methylisothiazole-4-carboxamide]
IC50 [1]: ≥ 100000 nM
IC50 [2]: ≥ 100000 nM
Ki [3]: 4.01 nM
IC50 [4]: 36.2 nM
